{"source": "paper PMC5218480", "about": "(PLoS ONE, 2017)", "tested_on": "MV-4-11 cells", "assay": "Gene expression microarray analysis (Affymetrix PrimeView) and GSEA", "type": "cell-based, human", "set-up": "RFU PODN (11730768_x_at) / Fold change /veh PODN (11730768_x_at) / RFU LINC00158 (11744669_a_at) / Fold change /veh LINC00158 (11744669_a_at) / RFU DUSP10 (11751237_a_at) / Fold change /veh DUSP10 (11751237_a_at) / RFU ID3 (11757404_x_at) / Fold change /veh ID3 (11757404_x_at) / RFU PLEKHG5 (11737974_s_at) / Fold change /veh PLEKHG5 (11737974_s_at) / RFU LRRC4B (11730491_at) / Fold change /veh LRRC4B (11730491_at) / RFU GIMAP4 (11747438_a_at) / Fold change /veh GIMAP4 (11747438_a_at) / RFU KRT8 (11758183_x_at) / Fold change /veh KRT8 (11758183_x_at) / RFU CNN1 (11734310_a_at) / Fold change /veh CNN1 (11734310_a_at) / RFU VPS37D (11726825_at) / Fold change /veh VPS37D (11726825_at) / RFU C10orf10 (11716522_x_at) / Fold change /veh C10orf10 (11716522_x_at) / RFU KIR2DL2 /// KIR2DL4 /// KIR2DL5A /// KIR2DL5B /// KIR2DS1 /// KIR2DS2 /// KIR2DS3 /// KIR2DS4 /// KIR3DL3 /// KIR3DL3 /// KIR3DS1 (11738374_at) / Fold change /veh KIR2DL2 /// KIR2DL4 /// KIR2DL5A /// KIR2DL5B /// KIR2DS1 /// KIR2DS2 /// KIR2DS3 /// KIR2DS4 /// KIR3DL3 /// KIR3DL3 /// KIR3DS1 (11738374_at) / RFU C1QL1 (11718748_at) / Fold change /veh C1QL1 (11718748_at) / RFU TMPRSS4 (11747572_a_at) / Fold change /veh TMPRSS4 (11747572_a_at) / RFU HAMP (11756126_x_at) / Fold change /veh HAMP (11756126_x_at) / RFU RNFT2 (11725882_a_at) / Fold change /veh RNFT2 (11725882_a_at) / RFU NR4A2 (11747474_a_at) / Fold change /veh NR4A2 (11747474_a_at) / RFU ABCC12 (11746883_a_at) / Fold change /veh ABCC12 (11746883_a_at) / RFU TMEM136 (11760407_x_at) / Fold change /veh TMEM136 (11760407_x_at) / RFU CLDN22 /// WWC2 (11732394_at) / Fold change /veh CLDN22 /// WWC2 (11732394_at) / RFU HLA-DPB1 (11760878_x_at) / Fold change /veh HLA-DPB1 (11760878_x_at) / RFU SPINT1 (11716480_a_at) / Fold change /veh SPINT1 (11716480_a_at) / RFU GAP43 (11754022_s_at) / Fold change /veh GAP43 (11754022_s_at) / RFU A4GNT (11735810_at) / Fold change /veh A4GNT (11735810_at) / RFU PRB3 (11715151_x_at) / Fold change /veh PRB3 (11715151_x_at) / RFU TUBB4B (11761932_at) / Fold change /veh TUBB4B (11761932_at) / RFU CAPN14 (11732068_a_at) / Fold change /veh CAPN14 (11732068_a_at) / RFU TMCC2 (11721928_a_at) / Fold change /veh TMCC2 (11721928_a_at) / RFU IRGQ (11745062_a_at) / Fold change /veh IRGQ (11745062_a_at) / RFU FAM174B (11720279_a_at) / Fold change /veh FAM174B (11720279_a_at) / RFU TMPRSS4 (11748680_a_at) / Fold change /veh TMPRSS4 (11748680_a_at) / RFU FAM212B (11763350_a_at) / Fold change /veh FAM212B (11763350_a_at) / RFU PLEKHG5 (11743358_a_at) / Fold change /veh PLEKHG5 (11743358_a_at) / RFU ZSCAN30 (11745921_a_at) / Fold change /veh ZSCAN30 (11745921_a_at) / RFU CMKLR1 (11741424_a_at) / Fold change /veh CMKLR1 (11741424_a_at) / RFU LOC101060620 /// MAPK8IP1 (11723275_at) / Fold change /veh LOC101060620 /// MAPK8IP1 (11723275_at) / RFU SPTSSB (11747773_x_at) / Fold change /veh SPTSSB (11747773_x_at) / RFU PRSS12 (11739890_at) / Fold change /veh PRSS12 (11739890_at) / RFU BIN1 (11741810_x_at) / Fold change /veh BIN1 (11741810_x_at) / RFU WNT11 (11732464_a_at) / Fold change /veh WNT11 (11732464_a_at) / RFU C10orf10 (11716521_a_at) / Fold change /veh C10orf10 (11716521_a_at) / RFU C5orf56 (11738089_at) / Fold change /veh C5orf56 (11738089_at) / RFU CYB561 (11721691_x_at) / Fold change /veh CYB561 (11721691_x_at) / RFU ANKRD19P (11752326_a_at) / Fold change /veh ANKRD19P (11752326_a_at) / RFU OR2T12 /// OR2T33 /// OR2T8 (11738714_s_at) / Fold change /veh OR2T12 /// OR2T33 /// OR2T8 (11738714_s_at) / RFU VCAN (11748164_a_at) / Fold change /veh VCAN (11748164_a_at) / RFU JSRP1 (11732532_at) / Fold change /veh JSRP1 (11732532_at) / RFU KRTAP10-11 (11738290_x_at) / Fold change /veh KRTAP10-11 (11738290_x_at) / RFU MYO3A (11730013_a_at) / Fold change /veh MYO3A (11730013_a_at) / RFU EBF3 (11725865_a_at) / Fold change /veh EBF3 (11725865_a_at) / RFU CAMK2N1 (11719241_x_at) / Fold change /veh CAMK2N1 (11719241_x_at) / RFU C5orf56 (11738088_a_at) / Fold change /veh C5orf56 (11738088_a_at) / RFU OLFML3 (11715873_a_at) / Fold change /veh OLFML3 (11715873_a_at) / RFU LOC100653217 /// NTM (11731650_a_at) / Fold change /veh LOC100653217 /// NTM (11731650_a_at) / RFU MAPK11 (11762145_a_at) / Fold change /veh MAPK11 (11762145_a_at) / RFU FIZ1 (11724087_x_at) / Fold change /veh FIZ1 (11724087_x_at) / RFU OASL (11726364_x_at) / Fold change /veh OASL (11726364_x_at) / RFU SOX15 (11748057_x_at) / Fold change /veh SOX15 (11748057_x_at) / RFU CD79A (11719716_a_at) / Fold change /veh CD79A (11719716_a_at) / RFU HIST1H1D (11736915_at) / Fold change /veh HIST1H1D (11736915_at) / RFU CASKIN2 (11723855_a_at) / Fold change /veh CASKIN2 (11723855_a_at) / RFU LOC730098 (11760151_x_at) / Fold change /veh LOC730098 (11760151_x_at) / RFU OR4N2 (11742367_at) / Fold change /veh OR4N2 (11742367_at) / RFU PRRT2 (11749266_a_at) / Fold change /veh PRRT2 (11749266_a_at) / RFU SNX32 (11753110_a_at) / Fold change /veh SNX32 (11753110_a_at) / RFU CDHR5 (11726645_a_at) / Fold change /veh CDHR5 (11726645_a_at) / RFU RCAN1 (11760418_a_at) / Fold change /veh RCAN1 (11760418_a_at) / RFU FAM167A (11723789_a_at) / Fold change /veh FAM167A (11723789_a_at) / RFU FAM26E (11764081_at) / Fold change /veh FAM26E (11764081_at) / RFU ISYNA1 (11749810_s_at) / Fold change /veh ISYNA1 (11749810_s_at) / RFU ACY1 (11761880_at) / Fold change /veh ACY1 (11761880_at) / RFU 11764098_at / Fold change /veh 11764098_at / RFU SAMD14 (11745864_x_at) / Fold change /veh SAMD14 (11745864_x_at) / RFU NPB (11741838_a_at) / Fold change /veh NPB (11741838_a_at) / RFU TMPRSS6 (11731388_a_at) / Fold change /veh TMPRSS6 (11731388_a_at) / RFU KRTAP10-2 (11738614_at) / Fold change /veh KRTAP10-2 (11738614_at) / RFU ARHGAP8 /// PRR5-ARHGAP8 (11727945_x_at) / Fold change /veh ARHGAP8 /// PRR5-ARHGAP8 (11727945_x_at) / RFU KRTAP5-7 /// NADSYN1 (11734609_at) / Fold change /veh KRTAP5-7 /// NADSYN1 (11734609_at) / RFU RASL12 (11751679_a_at) / Fold change /veh RASL12 (11751679_a_at) / RFU CDKN2B (11736163_a_at) / Fold change /veh CDKN2B (11736163_a_at) / RFU PRF1 (11729649_at) / Fold change /veh PRF1 (11729649_at) / RFU, ZNF638 /// ZNF638-IT1 / Fold change vs veh, ZNF638 /// ZNF638-IT1 / RFU, PANK3 / Fold change vs veh, PANK3 / RFU, SH3YL1 / Fold change vs veh, SH3YL1 / RFU, ZEB2 / Fold change vs veh, ZEB2 / RFU, NRIP1 / Fold change vs veh, NRIP1 / RFU, PTTG1IP / Fold change vs veh, PTTG1IP / RFU, CAPN2 / Fold change vs veh, CAPN2 / RFU, MED14 / Fold change vs veh, MED14 / RFU, SNORA58 / Fold change vs veh, SNORA58 / RFU, C1orf63 / Fold change vs veh, C1orf63 / RFU, LRRFIP1 / Fold change vs veh, LRRFIP1 / RFU, NDUFAF7 / Fold change vs veh, NDUFAF7 / RFU, SLC12A2 / Fold change vs veh, SLC12A2 / RFU, IBTK / Fold change vs veh, IBTK / RFU, ESF1 / Fold change vs veh, ESF1 / Fold change vs veh, TMEM50B / RFU, TAOK1 / Fold change vs veh, TAOK1 / RFU, ACBD3 / Fold change vs veh, ACBD3 / RFU, TMA16 / Fold change vs veh, TMA16 / RFU, RWDD3 / Fold change vs veh, RWDD3 / RFU, BCAT1 / Fold change vs veh, BCAT1 / RFU, EDEM3 / Fold change vs veh, EDEM3 / RFU, TMEM33 / Fold change vs veh, TMEM33 / RFU, WDR75 / Fold change vs veh, WDR75 / RFU, AHCTF1 / Fold change vs veh, AHCTF1 / RFU, TFRC / Fold change vs veh, TFRC / RFU, ZDHHC17 / Fold change vs veh, ZDHHC17 / RFU, NOM1 / Fold change vs veh, NOM1 / RFU, ARL8B / Fold change vs veh, ARL8B / RFU, ZBTB11 / Fold change vs veh, ZBTB11 / RFU, TAMM41 / Fold change vs veh, TAMM41 / RFU, KIAA1704 /// LOC100996395 / Fold change vs veh, KIAA1704 /// LOC100996395 / RFU, ING1 / Fold change vs veh, ING1 / RFU, TRMT61B / Fold change vs veh, TRMT61B / RFU, FUBP3 / Fold change vs veh, FUBP3 / RFU, TP53 / Fold change vs veh, TP53 / RFU, TNKS2 / Fold change vs veh, TNKS2 / RFU, ZFP14 / Fold change vs veh, ZFP14 / RFU, ACTR2 / Fold change vs veh, ACTR2 / RFU, PPP3R1 / Fold change vs veh, PPP3R1 / RFU, PIK3R1 / Fold change vs veh, PIK3R1 / RFU, HNRNPA1 / Fold change vs veh, HNRNPA1 / RFU, RNF170 / Fold change vs veh, RNF170 / RFU, ZNF28 / Fold change vs veh, ZNF28 / RFU, RNGTT / Fold change vs veh, RNGTT / RFU, OGT / Fold change vs veh, OGT / RFU, BRD1 / Fold change vs veh, BRD1 / RFU, MARS / Fold change vs veh, MARS / RFU, ZNF655 / Fold change vs veh, ZNF655 / RFU, FAHD1 / Fold change vs veh, FAHD1 / RFU, BDP1 / Fold change vs veh, BDP1 / RFU, LRRCC1 / Fold change vs veh, LRRCC1 / RFU, ARID1A / Fold change vs veh, ARID1A / RFU, ZNF146 / Fold change vs veh, ZNF146 / RFU, ZNF330 / Fold change vs veh, ZNF330 / RFU, GPN3 / Fold change vs veh, GPN3 / RFU, C9orf123 / Fold change vs veh, C9orf123 / RFU, N4BP2L2 / Fold change vs veh, N4BP2L2 / RFU, ARFIP1 / Fold change vs veh, ARFIP1 / RFU, FAM179B / Fold change vs veh, FAM179B / RFU, BCL10 / Fold change vs veh, BCL10 / RFU, UHRF1BP1L / Fold change vs veh, UHRF1BP1L / RFU, BET1 / Fold change vs veh, BET1 / RFU, CNOT2 / Fold change vs veh, CNOT2 / RFU, ZNF268 / Fold change vs veh, ZNF268 / Fold change vs veh, ZNF507 / RFU, DGCR2 / Fold change vs veh, DGCR2 / RFU, WDSUB1 / Fold change vs veh, WDSUB1 / Fold change vs veh, HSP90B1 /// MIR3652 / RFU, ADSS / Fold change vs veh, ADSS / RFU, GK / Fold change vs veh, GK / RFU, ZNF148 / Fold change vs veh, ZNF148 / RFU, TAF9 / Fold change vs veh, TAF9 / RFU, SLC1A5 / Fold change vs veh, SLC1A5 / RFU, SLMO2 / Fold change vs veh, SLMO2 / RFU, ABCC4 / Fold change vs veh, ABCC4 / RFU, LOC101060439 /// RAP1B / Fold change vs veh, LOC101060439 /// RAP1B / RFU, RFX7 / Fold change vs veh, RFX7 / RFU, GTPBP10 / Fold change vs veh, GTPBP10 / RFU, CNEP1R1 / Fold change vs veh, CNEP1R1 / RFU, BIVM-ERCC5 /// ERCC5 / Fold change vs veh, BIVM-ERCC5 /// ERCC5 / RFU, ILF3 / Fold change vs veh, ILF3 / RFU 11762660_at / Fold change /veh 11762660_at / RFU VCAN (11757783_s_at) / Fold change /veh VCAN (11757783_s_at) / RFU DDX43 (11728927_at) / Fold change /veh DDX43 (11728927_at) / RFU KRT8 (11758188_x_at) / Fold change /veh KRT8 (11758188_x_at) / RFU NKD1 (11759106_at) / Fold change /veh NKD1 (11759106_at) / RFU SRD5A1 (11742802_a_at) / Fold change /veh SRD5A1 (11742802_a_at) / RFU TPSAB1 /// TPSB2 (11721975_s_at) / Fold change /veh TPSAB1 /// TPSB2 (11721975_s_at) / RFU GSTM3 (11746129_a_at) / Fold change /veh GSTM3 (11746129_a_at) / RFU IL23R (11737362_x_at) / Fold change /veh IL23R (11737362_x_at) / RFU TMEM51 (11727254_a_at) / Fold change /veh TMEM51 (11727254_a_at) / RFU PIWIL2 (11732686_x_at) / Fold change /veh PIWIL2 (11732686_x_at) / RFU ORM1 (11744905_x_at) / Fold change /veh ORM1 (11744905_x_at) / RFU CCDC152 (11743942_at) / Fold change /veh CCDC152 (11743942_at) / RFU ECM1 (11717891_a_at) / Fold change /veh ECM1 (11717891_a_at) / RFU IL23R (11748794_a_at) / Fold change /veh IL23R (11748794_a_at) / RFU TNFAIP8L3 (11732012_x_at) / Fold change /veh TNFAIP8L3 (11732012_x_at) / RFU MBOAT4 (11741988_at) / Fold change /veh MBOAT4 (11741988_at) / RFU 11764193_at / Fold change /veh 11764193_at / RFU TMEM53 (11763286_at) / Fold change /veh TMEM53 (11763286_at) / RFU MAGEB2 (11727129_at) / Fold change /veh MAGEB2 (11727129_at) / RFU TMEM200A (11744735_a_at) / Fold change /veh TMEM200A (11744735_a_at) / RFU CCDC152 (11751479_a_at) / Fold change /veh CCDC152 (11751479_a_at) / RFU FAM211A (11726209_a_at) / Fold change /veh FAM211A (11726209_a_at) / RFU RGS16 (11746705_a_at) / Fold change /veh RGS16 (11746705_a_at) / RFU VCAN (11755009_s_at) / Fold change /veh VCAN (11755009_s_at) / RFU RHOB (11743442_s_at) / Fold change /veh RHOB (11743442_s_at) / RFU RGS16 (11720943_a_at) / Fold change /veh RGS16 (11720943_a_at) / RFU RGS16 (11720944_at) / Fold change /veh RGS16 (11720944_at) / RFU, VPS4B / Fold change vs veh, VPS4B / RFU, CREB1 / Fold change vs veh, CREB1 / RFU, DNAJC13 / Fold change vs veh, DNAJC13 / RFU, GNAQ / Fold change vs veh, GNAQ / RFU, CDK5R1 / Fold change vs veh, CDK5R1 / RFU, ZRANB3 / Fold change vs veh, ZRANB3 / RFU, CUL4A / Fold change vs veh, CUL4A / RFU, CCNY / Fold change vs veh, CCNY / RFU, UFL1 / Fold change vs veh, UFL1 / RFU, COG3 / Fold change vs veh, COG3 / RFU, DIAPH2 / Fold change vs veh, DIAPH2 / RFU, SKA2 / Fold change vs veh, SKA2 / RFU, AFF3 / Fold change vs veh, AFF3 / RFU, LMF1 / Fold change vs veh, LMF1 / RFU, IPO11 / Fold change vs veh, IPO11 / RFU, DFFB / Fold change vs veh, DFFB / RFU, FOXP1 / Fold change vs veh, FOXP1 / RFU, CARD8 / Fold change vs veh, CARD8 / RFU, STRN3 / Fold change vs veh, STRN3 / RFU, ADK / Fold change vs veh, ADK / RFU, RASSF2 / Fold change vs veh, RASSF2 / RFU, WIPF1 / Fold change vs veh, WIPF1 / RFU, LARP1B / Fold change vs veh, LARP1B / RFU, RASA1 / Fold change vs veh, RASA1 / RFU, RB1 / Fold change vs veh, RB1 / RFU, PPFIA1 / Fold change vs veh, PPFIA1 / RFU, MAT2A / Fold change vs veh, MAT2A / RFU, CCT5 / Fold change vs veh, CCT5 / RFU, WDR92 / Fold change vs veh, WDR92 / RFU, CUX1 / Fold change vs veh, CUX1 / RFU, TTC7A / Fold change vs veh, TTC7A / RFU, TMEM135 / Fold change vs veh, TMEM135 / RFU, DEPTOR / Fold change vs veh, DEPTOR / RFU, CPM / Fold change vs veh, CPM / RFU, DNAJB6 / Fold change vs veh, DNAJB6 / RFU, CACNA2D3 / Fold change vs veh, CACNA2D3 / RFU, DTX4 / Fold change vs veh, DTX4 / RFU, TFCP2 / Fold change vs veh, TFCP2 / RFU, GMCL1 /// GMCL1P1 / Fold change vs veh, GMCL1 /// GMCL1P1 / RFU, AEBP2 / Fold change vs veh, AEBP2 / RFU, SNHG1 /// SNORD22 /// SNORD25 /// SNORD26 /// SNORD27 /// SNORD28 /// SNORD29 /// SNORD31 / Fold change vs veh, SNHG1 /// SNORD22 /// SNORD25 /// SNORD26 /// SNORD27 /// SNORD28 /// SNORD29 /// SNORD31 / Fold change (Aza/veh), C12orf56 (ProbeSet 11735607_a_at) / Fold change (ACY-1035/veh), C12orf56 (ProbeSet 11735607_a_at) / Fold change (Aza/veh), FGFR1OP (ProbeSet 11751329_s_at) / Fold change (ACY-1035/veh), FGFR1OP (ProbeSet 11751329_s_at) / Fold change (Aza/veh), VPS36 (ProbeSet 11739960_a_at) / Fold change (ACY-1035/veh), VPS36 (ProbeSet 11739960_a_at) / RFU SYPL1 (11715823_x_at) / Fold change /veh SYPL1 (11715823_x_at) / RFU IGFBP7 (11715501_s_at) / Fold change /veh IGFBP7 (11715501_s_at) / RFU REEP3 (11722064_at) / Fold change /veh REEP3 (11722064_at) / RFU IGLL1 (11728026_x_at) / Fold change /veh IGLL1 (11728026_x_at): dose or concentration left out as unconfirmed", "settings": "MV-4-11 cells, 48 hours", "data": [{"smiles": "Nc1ccc(-c2cccs2)cc1NC(=O)c1ccc2c(c1)cc(C1CC1)n2CCN1CCOCC1", "note": "[ACY-1035]", "values": [{"measurement": "RFU TMEM200A (11744735_a_at)", "value": 5.05, "unit": "RFU"}]}]}
